Patent publication US12240892B2, “Pharmaceutical composition comprising expression or activity inhibitor of c-src for preventing or treating synucleinopathy” (AJOU UNIVERSITY INDUSTRY-ACADEMIC COOPERATION FOUNDATION, priority 2018, dated 2025)

Legend:
SHSY5Y cell line = assay: α-syn intercellular migration, two-chamber co-culture, immunostaining and confocal microscopy; type: cell-based; conditions: 0.1 μM saracatinib, 10 μM SKI; co-culture 12 hours with SHSY5Y overexpressing α-syn; vs PBS control
Procedure: The SHSY5Y cell overexpressing alpha-synuclein was seeded at 4×10^4 in a 12-well plate in an insert well using a two-chamber system, and the SHSY5Y cell line was seeded at 4×10^4 on the cover glass. The next day, the insert well was transferred to a 12-well cover glass, and during co-culture for 12 hours, the SHSY5Y cell line was treated with 0.1 μM saracatinib and 10 μM SKI (c-src kinase inhibitor I), which are c-src inhibitors, and then alpha-synuclein in SHSY5Y cell line on the cover glass was immunostained (α-syn: red, nucleus: blue) and observed using a confocal microscope to confirm that alpha-synuclein was migrated from SHSY5Y overexpressing alpha-synuclein to SHSY5Y not overexpressing alpha-synuclein.
Next, c-src knockdown SHSY5Y cell lines (KD #1 and KD #2), constructed using shRNAs of […], and dopaminergic neuronal cell line SHSY5Y overexpressing α-syn were co-cultured for 12 hours using a two-chamber system. The co-culture will be described in brief. SHSY5Y cells were seeded at a concentration of 4×10^4 cells/well on a 12-well cover glass. […]

[1] = test system: SHSY5Y overexpressing A53T eGFP; assay: Amount of aggregated α-syn in differentiated cells overexpressing A53T eGFP, confocal microscopy; type: cell-based; conditions: for amount of α-syn aggregated in the cells: Src KD SHSY5Y overexpressing A53T eGFP, 50 μM retinoid acid, differentiated 5 days

| Compound | migration of α-syn (SHSY5Y cell line) | amount of aggregated α-syn ([1]; 10 μM SKI, 0.5 μM saracatinib, differentiated with 50 μM RA) | amount of α-syn aggregated in the cells [1] |
| --- | --- | --- | --- |
| COc1cc2ncnc(Nc3ccc(Oc4ccccc4)cc3)c2cc1OC [SKI] | reduced | decreased |  |
| SEQ ID NO: 1: shRNA against c-src: CCGGGCUCGGCUCAUUGAAGACAAUCUCGAGAUUGUCUUCAAUGAGCCGAGCUUUUUG |  |  | decreased |
| SEQ ID NO: 2: shRNA against c-src: CCGGGACAGACCUGUCCUUCAAGAACUCGAGUUCUUGAAGGACAGGUCUGUCUUUUUG (listed as RNA, chemistry not fully specified) |  |  | decreased |
